Assay results published in PubChem BioAssay AID1963971 (Molecular Pharmacology Branch, DTP, NCI, 2024).

Tested on: 953936-095-R-J2-PDC spheroids with HUVEC/MSC, viability
Assay: Anticancer human tumor 953936-095-R-J2-PDC patient-derived cervical squamous cell carcinoma cell line growth inhibition [PI3K]
Conditions: for IC50: curve of first compound; for viability, T/C: stronger effect = lower value; active = viability on the fitted dose curve at most 10% of control; inactive = the rest
Method in brief: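 Spheroid viability read-out. Co-cultures contained the tumor line plus HUVEC and human MSCs. Each agent was paired with a PI3K inhibitor (inavolisib, alpelisib, duvelisib, copanlisib) across half-log dilutions starting at clinical Cmax, or at 10 microM when Cmax was unknown.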

[1] = second compound 0.00316 µM, first compound 0.0316 µM
[2] = second compound 0.00316 µM, first compound 0.1 µM
[3] = second compound 0.00316 µM, first compound 0.316 µM
[4] = second compound 0.00316 µM, first compound 1 µM
[5] = second compound 0.01 µM, first compound 0.0316 µM
[6] = second compound 0.01 µM, first compound 0.1 µM
[7] = second compound 0.01 µM, first compound 0.316 µM
[8] = second compound 0.01 µM, first compound 1 µM
[9] = second compound 0.0316 µM, first compound 0.0316 µM
[10] = second compound 0.0316 µM, first compound 0.1 µM
[11] = second compound 0.0316 µM, first compound 0.316 µM
[12] = second compound 0.0316 µM, first compound 1 µM
[13] = second compound 0.1 µM, first compound 0.0316 µM
[14] = second compound 0.1 µM, first compound 0.1 µM
[15] = second compound 0.1 µM, first compound 0.316 µM
[16] = second compound 0.1 µM, first compound 1 µM
[17] = second compound 0.316 µM, first compound 0.0316 µM
[18] = second compound 0.316 µM, first compound 0.1 µM
[19] = second compound 0.316 µM, first compound 0.316 µM
[20] = second compound 0.316 µM, first compound 1 µM
[21] = second compound 1 µM, first compound 0.0316 µM
[22] = second compound 1 µM, first compound 0.1 µM
[23] = second compound 1 µM, first compound 0.316 µM
[24] = second compound 1 µM, first compound 1 µM
[25] = second compound 0.00316 µM, first compound 0.00316 µM
[26] = second compound 0.00316 µM, first compound 0.01 µM
[27] = second compound 0.01 µM, first compound 0.00316 µM
[28] = second compound 0.01 µM, first compound 0.01 µM
[29] = second compound 0.0316 µM, first compound 0.00316 µM
[30] = second compound 0.0316 µM, first compound 0.01 µM
[31] = second compound 0.1 µM, first compound 0.00316 µM
[32] = second compound 0.1 µM, first compound 0.01 µM
[33] = second compound 0.316 µM, first compound 0.00316 µM
[34] = second compound 0.316 µM, first compound 0.01 µM
[35] = second compound 1 µM, first compound 0.00316 µM
[36] = second compound 1 µM, first compound 0.01 µM
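Also: spheroids exposed to compounds for seven days before read-out.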

CC(C)NCC(C(=O)N1CCN(c2ncnc3c2C(C)CC3O)CC1)c1ccc(Cl)cc1 (stereo unspecified) + COc1c(OCCCN2CCOCC2)ccc2c3n(c(=NC(=O)c4cnc(N)nc4)nc12)CCN3
537 nM: IC50 (second compound 0.01 µM)
< 31.6 nM: IC50 (second compound 0.0316 µM) | IC50 (second compound 0.1 µM) | IC50 (second compound 0.316 µM) | IC50 (second compound 1 µM)
793 nM: IC50 (second compound 0.00316 µM)
inactive: viability, T/C [1] 80.9% | viability, T/C [2] 85.2% | viability, T/C [3] 66.5% | viability, T/C [4] 46.5% | viability, T/C (second compound 0.00316 µM, first compound 3.16 µM) 21% | viability, T/C (second compound 0.00316 µM, first compound 10 µM) 11.6% | viability, T/C [5] 68.9% | viability, T/C [6] 69.2% | viability, T/C [7] 62.2% | viability, T/C [8] 35.6% | viability, T/C (second compound 0.01 µM, first compound 3.16 µM) 16.6% | viability, T/C (second compound 0.01 µM, first compound 10 µM) 9.89% | viability, T/C [9] 44.4% | viability, T/C [10] 38.5% | viability, T/C [11] 35.7% | viability, T/C [12] 24% | viability, T/C (second compound 0.0316 µM, first compound 3.16 µM) 12.2% | viability, T/C [13] 18.9% | viability, T/C [14] 16.4% | viability, T/C [15] 16.3% | viability, T/C [16] 12.4%
active: viability, T/C (second compound 0.0316 µM, first compound 10 µM) 6.65% | viability, T/C (second compound 0.1 µM, first compound 3.16 µM) 6.76% | viability, T/C (second compound 0.1 µM, first compound 10 µM) 3.98% | viability, T/C [17] 6.59% | viability, T/C [18] 6.54% | viability, T/C [19] 5.22% | viability, T/C [20] 4.04% | viability, T/C (second compound 0.316 µM, first compound 3.16 µM) 2.93% | viability, T/C (second compound 0.316 µM, first compound 10 µM) 1.71% | viability, T/C [21] 1.44% | viability, T/C [22] 2.11% | viability, T/C [23] 1.2% | viability, T/C [24] 1.24% | viability, T/C (second compound 1 µM, first compound 3.16 µM) 0.83% | viability, T/C (second compound 1 µM, first compound 10 µM) 0.81%

CCN1CCN(Cc2ccc(Nc3ncc(F)c(-c4cc(F)c5nc(C)n(C(C)C)c5c4)n3)nc2)CC1 + COc1c(OCCCN2CCOCC2)ccc2c3n(c(=NC(=O)c4cnc(N)nc4)nc12)CCN3
active: viability, T/C [33] 6% | viability, T/C [34] 5.63% | viability, T/C [17] 4.91% | viability, T/C [18] 5.77% | viability, T/C [19] 4.23% | viability, T/C [20] 6.22% | viability, T/C [35] 1.99% | viability, T/C [36] 1.61% | viability, T/C [21] 1.43% | viability, T/C [22] 1.48% | viability, T/C [23] 1.73% | viability, T/C [24] 2.54%
inactive: viability, T/C [25] 92.5% | viability, T/C [26] 91.2% | viability, T/C [1] 87% | viability, T/C [2] 91.7% | viability, T/C [3] 76.5% | viability, T/C [4] 67.7% | viability, T/C [27] 70.8% | viability, T/C [28] 75% | viability, T/C [5] 69.7% | viability, T/C [6] 60.7% | viability, T/C [7] 56% | viability, T/C [8] 55.5% | viability, T/C [29] 40.5% | viability, T/C [30] 40.9% | viability, T/C [9] 37.7% | viability, T/C [10] 33.1% | viability, T/C [11] 35.9% | viability, T/C [12] 31.7% | viability, T/C [31] 20% | viability, T/C [32] 17.5% | viability, T/C [13] 15.2% | viability, T/C [14] 13.8% | viability, T/C [15] 14.2% | viability, T/C [16] 15.6%
< 3.16 nM: IC50 (second compound 0.0316 µM) | IC50 (second compound 0.1 µM) | IC50 (second compound 0.316 µM) | IC50 (second compound 1 µM)
> 1000 nM: IC50 (second compound 0.00316 µM) | IC50 (second compound 0.01 µM)

Cn1ncnc1[C@H]1c2n[nH]c(=O)c3cc(F)cc(c23)N[C@@H]1c1ccc(F)cc1 + COc1c(OCCCN2CCOCC2)ccc2c3n(c(=NC(=O)c4cnc(N)nc4)nc12)CCN3
active: viability, T/C (second compound 0.316 µM, first compound 0.000316 µM) 6.63% | viability, T/C (second compound 0.316 µM, first compound 0.001 µM) 6.64% | viability, T/C [33] 7.07% | viability, T/C [34] 7.8% | viability, T/C [17] 6.66% | viability, T/C [18] 5.37% | viability, T/C (second compound 1 µM, first compound 0.000316 µM) 1.68% | viability, T/C (second compound 1 µM, first compound 0.001 µM) 1.6% | viability, T/C [35] 1.91% | viability, T/C [36] 1.67% | viability, T/C [21] 1.93% | viability, T/C [22] 1.28%
< 0.316 nM: IC50 (second compound 0.0316 µM) | IC50 (second compound 0.1 µM) | IC50 (second compound 0.316 µM) | IC50 (second compound 1 µM)
> 100 nM: IC50 (second compound 0.00316 µM) | IC50 (second compound 0.01 µM)
inactive: viability, T/C (second compound 0.00316 µM, first compound 0.000316 µM) 83% | viability, T/C (second compound 0.00316 µM, first compound 0.001 µM) 102% | viability, T/C [25] 93.9% | viability, T/C [26] 85.2% | viability, T/C [1] 81.6% | viability, T/C [2] 78.5% | viability, T/C (second compound 0.01 µM, first compound 0.000316 µM) 71% | viability, T/C (second compound 0.01 µM, first compound 0.001 µM) 85.1% | viability, T/C [27] 81.1% | viability, T/C [28] 72.1% | viability, T/C [5] 67.3% | viability, T/C [6] 68.2% | viability, T/C (second compound 0.0316 µM, first compound 0.000316 µM) 44.6% | viability, T/C (second compound 0.0316 µM, first compound 0.001 µM) 39.1% | viability, T/C [29] 41% | viability, T/C [30] 43% | viability, T/C [9] 39.3% | viability, T/C [10] 35.8% | viability, T/C (second compound 0.1 µM, first compound 0.000316 µM) 19% | viability, T/C (second compound 0.1 µM, first compound 0.001 µM) 18.1% | viability, T/C [31] 18.2% | viability, T/C [32] 18.9% | viability, T/C [13] 19.9% | viability, T/C [14] 17.4%
